These results are taken from ChEMBL document CHEMBL4334534, “Novel Methyl-aza-quinazolines as Inhibitors of the RAS-SOS Interaction” (ACS Med Chem Lett, 2020).

Assay [1] addresses Epidermal growth factor receptor (Homo sapiens, UniProt P00533). Nature of the assay: Inhibition of EGFR phosphorylation at Y 1173 residues in human HeLa cells preincubated for 30 mins followed by EGF-stimulation and measured after 2 mins by ELISA. It is filed as cell-based. A general note: ELISA stands for enzyme-linked immunosorbent assay.
In assay [2] the target is T1, SOS1-KRAS (Homo sapiens, UniProt P01116+Q07889, G12C). Briefly: Inhibition of human N-terminal GST-tagged K-RasG12C mutant/human N-terminal His-tagged SOS1 preincubated for 2 mis followed by SOS1 addition and measured after 60 mins by HTRF assay. In general terms: TR-FRET usually uses a lanthanide donor and a delayed reading to cut background.
Assay [3] deals with T1, SOS1-KRAS. Briefly: Inhibition of human N-terminal GST-tagged K-RasG12C mutant/human N-terminal His-tagged SOS1 preincubated for 2 mis followed by SOS1 addition and measured after 20 mins in presence of GDP-Dy647P1 by HTRF assay.
The target of assay [4] is T1, SOS1-KRAS. Nature of the assay: Inhibition of human N-terminal GST-tagged K-RasG12C mutant/human N-terminal His-tagged SOS1 preincubated for 2 mis followed by SOS1 addition and measured after 10 mins in presence of EDA-GTP-Dy647P1 by HTRF assay.

Molecules are shown by their SMILES.

A word on the IC50: it is the concentration that gives 50% inhibition.

Epidermal growth factor receptor, sequence (P00533 whole entry): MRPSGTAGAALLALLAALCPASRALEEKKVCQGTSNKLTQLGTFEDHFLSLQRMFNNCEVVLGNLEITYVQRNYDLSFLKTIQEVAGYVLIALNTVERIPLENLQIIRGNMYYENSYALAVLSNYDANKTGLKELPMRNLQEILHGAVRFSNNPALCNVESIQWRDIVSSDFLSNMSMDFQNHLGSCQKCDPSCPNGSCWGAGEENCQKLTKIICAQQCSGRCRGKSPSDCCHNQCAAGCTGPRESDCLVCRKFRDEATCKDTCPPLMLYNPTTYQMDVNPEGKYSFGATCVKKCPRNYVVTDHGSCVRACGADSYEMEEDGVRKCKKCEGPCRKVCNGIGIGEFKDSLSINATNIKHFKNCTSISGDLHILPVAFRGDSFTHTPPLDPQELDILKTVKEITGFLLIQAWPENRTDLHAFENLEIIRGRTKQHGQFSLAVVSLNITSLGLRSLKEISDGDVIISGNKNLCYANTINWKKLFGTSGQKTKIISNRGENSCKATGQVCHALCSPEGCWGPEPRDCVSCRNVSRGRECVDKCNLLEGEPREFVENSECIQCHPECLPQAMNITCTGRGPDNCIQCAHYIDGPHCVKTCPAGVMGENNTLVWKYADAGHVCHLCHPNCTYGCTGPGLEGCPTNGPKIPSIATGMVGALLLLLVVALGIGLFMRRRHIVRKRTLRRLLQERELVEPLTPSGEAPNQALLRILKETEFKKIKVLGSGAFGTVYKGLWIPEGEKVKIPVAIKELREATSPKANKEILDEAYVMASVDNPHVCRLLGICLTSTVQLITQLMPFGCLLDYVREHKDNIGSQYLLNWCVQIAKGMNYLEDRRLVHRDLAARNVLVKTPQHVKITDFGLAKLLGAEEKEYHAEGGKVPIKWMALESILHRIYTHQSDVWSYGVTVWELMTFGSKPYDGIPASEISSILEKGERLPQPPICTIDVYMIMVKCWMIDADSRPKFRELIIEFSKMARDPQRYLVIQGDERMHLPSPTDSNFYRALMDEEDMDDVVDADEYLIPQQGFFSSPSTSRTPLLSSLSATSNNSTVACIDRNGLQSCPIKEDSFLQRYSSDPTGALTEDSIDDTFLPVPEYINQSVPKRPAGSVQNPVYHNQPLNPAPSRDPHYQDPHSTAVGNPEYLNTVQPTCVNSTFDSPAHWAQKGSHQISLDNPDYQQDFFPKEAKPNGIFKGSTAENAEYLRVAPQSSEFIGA
T1 sequence (P01116 whole entry G12C, stated change not applied): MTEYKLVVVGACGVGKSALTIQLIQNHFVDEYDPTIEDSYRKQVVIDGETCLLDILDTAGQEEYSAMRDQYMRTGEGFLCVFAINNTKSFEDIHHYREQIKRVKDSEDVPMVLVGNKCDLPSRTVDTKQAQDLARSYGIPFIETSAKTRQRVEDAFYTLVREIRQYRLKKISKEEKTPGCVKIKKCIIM
T1 sequence (Q07889 whole entry, stated change not applied): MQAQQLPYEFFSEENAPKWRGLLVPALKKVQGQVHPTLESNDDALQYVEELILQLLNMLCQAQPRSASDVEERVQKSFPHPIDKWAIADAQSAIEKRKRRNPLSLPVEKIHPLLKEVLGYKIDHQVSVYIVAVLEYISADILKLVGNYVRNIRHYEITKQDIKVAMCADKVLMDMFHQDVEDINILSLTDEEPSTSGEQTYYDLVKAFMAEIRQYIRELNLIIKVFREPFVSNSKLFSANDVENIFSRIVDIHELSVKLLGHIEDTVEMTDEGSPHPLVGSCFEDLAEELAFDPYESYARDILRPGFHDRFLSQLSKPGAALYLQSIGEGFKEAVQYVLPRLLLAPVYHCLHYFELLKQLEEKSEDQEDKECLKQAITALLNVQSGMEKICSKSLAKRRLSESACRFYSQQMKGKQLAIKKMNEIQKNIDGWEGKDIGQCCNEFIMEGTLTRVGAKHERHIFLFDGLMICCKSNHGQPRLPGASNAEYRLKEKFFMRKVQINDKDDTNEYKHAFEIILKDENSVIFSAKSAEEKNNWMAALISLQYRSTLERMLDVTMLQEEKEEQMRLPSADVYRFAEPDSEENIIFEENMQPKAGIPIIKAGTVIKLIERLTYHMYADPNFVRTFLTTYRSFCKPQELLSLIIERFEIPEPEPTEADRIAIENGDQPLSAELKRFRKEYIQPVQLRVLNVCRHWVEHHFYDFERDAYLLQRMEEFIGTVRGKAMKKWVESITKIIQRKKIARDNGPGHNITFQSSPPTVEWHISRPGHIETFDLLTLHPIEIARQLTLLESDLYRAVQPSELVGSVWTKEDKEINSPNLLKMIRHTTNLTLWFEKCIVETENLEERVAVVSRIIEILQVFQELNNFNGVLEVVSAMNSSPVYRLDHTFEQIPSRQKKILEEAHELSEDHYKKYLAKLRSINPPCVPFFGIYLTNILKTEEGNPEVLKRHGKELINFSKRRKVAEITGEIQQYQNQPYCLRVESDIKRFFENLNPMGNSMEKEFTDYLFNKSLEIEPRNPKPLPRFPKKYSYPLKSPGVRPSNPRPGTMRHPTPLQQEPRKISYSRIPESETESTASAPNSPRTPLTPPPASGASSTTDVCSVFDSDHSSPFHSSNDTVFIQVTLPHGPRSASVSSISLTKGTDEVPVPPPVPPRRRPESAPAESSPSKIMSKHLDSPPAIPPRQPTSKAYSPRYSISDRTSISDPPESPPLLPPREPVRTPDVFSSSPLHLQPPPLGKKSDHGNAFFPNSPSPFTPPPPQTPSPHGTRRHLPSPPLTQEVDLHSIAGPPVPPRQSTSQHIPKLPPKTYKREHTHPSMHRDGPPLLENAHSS

`CSc1cc2c(N[C@H](C)c3ccc(F)cc3)nc(C)nc2cn1` gave an IC50 in assay [1] of over 20 µM. Compound `CNCc1ccccc1-c1ccc(C(C)Nc2nc(C)nc3cnc(OCC4CCNC(=O)C4)cc23)s1` (centres undefined) displayed an IC50 in assay [1] of over 20 µM.

With `Cc1nc(NC(C)c2ccc(-c3ccccc3CN(C)C)s2)c2cc(OCCN(C)C)ncc2n1` (centres undefined), the half-inhibitory concentration (IC50) is 0.03 µM on SOS1-KRAS [2], 0.027 µM on SOS1-KRAS [3] and over 20 µM in assay [1].

As to `COCCOc1cc2c(N[C@H](C)c3ccc(F)cc3)nc(C)nc2cn1`, the IC50 in assay [1] is over 20 µM. For `CCOc1cc2c(N[C@H](C)c3ccc(F)cc3)nc(C)nc2cn1`, in assay [1], the IC50 was over 20 µM. `Cc1nc(NC(C)c2ccc(-c3ccccc3CN(C)C)s2)c2cc(N3CCN(Cc4cccnc4)CC3)ncc2n1` (centres undefined): the IC50 on SOS1-KRAS [3] was 0.085 µM; in assay [1] it was over 20 µM. With `CCCOc1cc2c(NC(C)c3ccc(-c4ccccc4CN(C)C)s3)nc(C)nc2cn1` (centres undefined), the IC50 was 0.038 µM on SOS1-KRAS [3] and over 20 µM in assay [1]. Regarding `COc1cc2c(N[C@H](C)c3ccc(F)cc3)nc(C)nc2cn1`, in assay [1], the IC50 was over 20 µM.

`Cc1nc(NC(C)c2ccc(-c3ccccc3CN(C)C)s2)c2cc(N3CC(NC(=O)CN4CCOCC4)C3)ncc2n1` (centres undefined) showed an IC50 in assay [1] of over 20 µM. Turning to `CCOc1cc2c(N[C@H](C)c3ccccc3)nc(C)nc2cn1`, the IC50 in assay [1] is over 20 µM. As to `Cc1nc(NC(C)c2ccc(-c3ccccc3CN(C)C)s2)c2cc(N3CCNC(=O)C3)ncc2n1` (centres undefined), the IC50 is 0.048 µM at SOS1-KRAS [3], 0.054 µM on SOS1-KRAS [4] and over 20 µM in assay [1]. `CC(=O)NC1CCN(c2cc3c(NC(C)c4ccc(-c5ccccc5CN(C)C)s4)nc(C)nc3cn2)C1` (racemic) had an IC50 in assay [1] of over 20 µM. Turning to `CC(=O)N[C@@H]1CCN(c2cc3c(NC(C)c4ccc(-c5ccccc5CN(C)C)s4)nc(C)nc3cn2)C1` (stereo in doubt; 60), the IC50 in assay [1] is over 20 µM. `CC(=O)N[C@H]1CCN(c2cc3c(NC(C)c4ccc(-c5ccccc5CN(C)C)s4)nc(C)nc3cn2)C1` (stereo in doubt; 61): the IC50 in assay [1] was over 20 µM. `CC(=O)N[C@@H]1CCN(c2cc3c(NC(C)c4ccc(-c5ccccc5CN(C)C)s4)nc(C)nc3cn2)C1` (stereo in doubt; 79) had an IC50 in assay [1] (hela) of over 20 µM. In assay [1] (hela), `CC(=O)N[C@@H]1CCN(c2cc3c(NC(C)c4ccc(-c5ccccc5CN(C)C)s4)nc(C)nc3cn2)C1` (stereo in doubt; 80) yielded an IC50 of over 20 µM. Take `CC(=O)N[C@H]1CCN(c2cc3c(NC(C)c4ccc(-c5ccccc5CN(C)C)s4)nc(C)nc3cn2)C1` (stereo in doubt; 81): in assay [1] (hela), the IC50 is over 20 µM. Turning to `CC(=O)N[C@H]1CCN(c2cc3c(NC(C)c4ccc(-c5ccccc5CN(C)C)s4)nc(C)nc3cn2)C1` (stereo in doubt; 82), in assay [1] (hela), the IC50 is over 20 µM.
